Laboratory results published in PubChem BioAssay (NCI).
“And” between values parts separate entries of the source, which are not always exact repeats. Equal values may be shown once.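 A five-concentration, 48-hour dose response in 96-well plates underlies each endpoint, interpolated linearly between surrounding concentrations. Abbreviation: GI50, concentration required for 50% inhibition of growth. TGI denotes the concentration required for complete inhibition of growth.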 Where a SMILES comes first, the peptide text is derived from it. Bridges are numbered along the chain shown (N, C = ends). [ ]: non-standard residue; d: D form. aThr = C[C@H](O)[C@H](N)C(=O)O

Experiments:
Test in all cases: NCI anticancer screen, dose series, 48 h
BT-549 breast = test system: BT-549 breast
CCRF-CEM leukemia = test system: CCRF-CEM leukemia
NCI-H460 lung = test system: NCI-H460 lung
TK-10 renal = test system: TK-10 renal
HL-60(TB) leukemia = test system: HL-60(TB) leukemia
DU-145 prostate = test system: DU-145 prostate
HOP-92 NSCLC = test system: HOP-92 NSCLC
RPMI-8226 leukemia = test system: RPMI-8226 leukemia

SMILES	GI50 (BT-549 breast)	TGI (BT-549 breast)	GI50 (CCRF-CEM leukemia)	TGI (CCRF-CEM leukemia)	GI50 (NCI-H460 lung)	TGI (NCI-H460 lung)	GI50 (TK-10 renal)	TGI (TK-10 renal)	GI50 (HL-60(TB) leukemia)	TGI (HL-60(TB) leukemia)	GI50 (DU-145 prostate)	TGI (DU-145 prostate)	GI50 (HOP-92 NSCLC)	TGI (HOP-92 NSCLC)	GI50 (RPMI-8226 leukemia)	TGI (RPMI-8226 leukemia)
CCN(CC)c1ccc2nc3ccc(=[N+](CC)CC)cc-3oc2c1	2.32 µM	21 µM	0.0973 µM	> 100 µM	0.108 µM	8.12 µM	0.474 µM	3.57 µM	0.0247 µM	1.2 µM	0.522 µM	20.9 µM	1.31 µM	5.14 µM	0.264 µM	20 µM
COc1cc(-c2nccc3[nH]c(-c4ccc5cc[nH]c5c4)nc23)cc(OC)c1OC	< 0.01 µM	2.71 µM	< 0.01 µM	12.2 µM	< 0.01 µM	1.04 µM	1.13 µM	7.88 µM	< 0.01 µM	< 0.01 µM	< 0.01 µM	11.4 µM	0.306 µM	4.98 µM	0.0448 µM	5.16 µM
CC(=O)O[C@H]1CC2C(C3CC[C@H](C(C)CCC(=O)O)[C@]31C)[C@H](OC(C)=O)C[C@@H]1CC3(CC[C@]21C)OOC1(CCC(C)CC1)OO3 (stereo partly drawn)		15.1 µM and 7.14 µM		5.26 µM and 4.09 µM		16.7 µM and 7.64 µM	18.6 µM and 3.08 µM	33 µM and 9.19 µM		11.2 µM and 4.41 µM		18 µM and 13.5 µM	10.1 µM and 2.34 µM	23.2 µM and 5.95 µM		6.9 µM and 4.79 µM
COc1ccccc1CNCCN1C(=O)c2ccc3c4c(ccc(c24)C1=O)C(=O)N(CCNCc1ccccc1OC)C3=O	0.502 µM	1.64 µM	0.244 µM		0.208 µM	0.458 µM	0.263 µM	0.735 µM	0.265 µM	0.607 µM	0.321 µM	1.11 µM	1.71 µM	4.38 µM	0.287 µM	0.955 µM
CCOC(=O)/C(=C\c1cccc(C)c1)C(C)=O		22.7 µM				51.6 µM		44.3 µM		32.2 µM		38.7 µM		34.8 µM		32.2 µM
COCCN(CCOC)c1nc(-c2ccccc2)nc2ccccc12	22.5 µM	47.7 µM	4.23 µM	> 100 µM	20.8 µM	79.2 µM	30.7 µM	78.4 µM	30.3 µM	> 100 µM	36.9 µM	> 100 µM			7.03 µM	36 µM
Cc1cccc(Cn2cc(CO)c3cnccc32)c1	35.7 µM	> 100 µM			57.5 µM	> 100 µM	64.7 µM	> 100 µM			> 100 µM	> 100 µM	7.88 µM	79.4 µM	3.82 µM	72.9 µM
O=C(COc1ccc(/C=C2\Oc3ccccc3C2=O)cc1)Nc1nc2ccccc2s1	6.67 µM	> 80.5 µM	0.17 µM	0.332 µM	43.8 µM	> 100 µM	> 84.8 µM	> 100 µM	1.68 µM	3.51 µM	5.59 µM	> 100 µM			2.79 µM	15.7 µM
COCCOC1=C(Cl)C(=O)c2ccccc2C1=O	3.2 µM	10.6 µM			3.34 µM	17.3 µM	2.83 µM	10.8 µM	1.58 µM	4.87 µM	3.1 µM	10.7 µM	1.41 µM	2.93 µM	2.31 µM	6.75 µM
CC(C)C[C@@H]1NC(=O)[C@@H]2CCCN2C(=O)[C@@H]2CCCN2C(=O)[C@H](CC(C)C)NC(=O)[C@H](CO)NC(=O)[C@H](CCCCN)NC(=O)[C@H]([C@H](C)O)NC(=O)[C@@H]2CSSC[C@@H](NC1=O)C(=O)N[C@@H](Cc1ccccc1)C(=O)N1CCC[C@H]1C(=O)N[C@@H](CC(=O)O)C(=O)NCC(=O)N[C@@H](CCCN=C(N)N)C(=O)N2 (cyclo(C[aThr]KSLPPL[dC]FPDGR); disulfide 1-9)	> 50 µM	> 50 µM	> 50 µM	> 50 µM	> 50 µM	> 50 µM	> 50 µM	> 50 µM			> 50 µM	> 50 µM	> 50 µM	> 50 µM	> 50 µM	> 50 µM
COc1cc(OC)c(OC)cc1/C=C/c1nc2ccccc2s1				> 100 µM		> 100 µM		> 100 µM		> 100 µM		> 100 µM		56.9 µM		> 100 µM
CC(=O)NC1C(O[C@H]2C[C@H]3[C@@H]4CC=C5C[C@@H](O)CC[C@]5(C)[C@H]4CC[C@]3(C)[C@H]2[C@H](C)C(=O)CCC(C)C)OCC(O)C1O (stereo partly drawn)	0.776 µM	6.96 µM	1.25 µM	4.15 µM	1.71 µM	6.1 µM	13.9 µM	> 42.5 µM			5.89 µM	> 42.5 µM	5.1 µM	15.5 µM	0.593 µM	2.06 µM
COc1ccc(-c2cc(/C=C/C(=O)c3ccc(N)cc3)[nH]n2)cc1OC	1.5 µM	2.94 µM	1.74 µM	7.81 µM	2.03 µM	4.53 µM	10.9 µM	23 µM	3.45 µM	> 100 µM	3.74 µM	13.5 µM	14.9 µM	30.9 µM	1.28 µM	5.52 µM
Cc1ccc(NC(=O)c2cc(S(=O)(=O)Nc3nnc(-c4ccccc4)c(-c4ccccc4)n3)c(SCc3ccccc3)cc2Cl)cc1	19.8 µM	45.9 µM	49.5 µM	> 100 µM	26.4 µM	> 100 µM	18.4 µM	40.6 µM	17.2 µM	41.6 µM	20 µM	37.9 µM	18.8 µM	42.9 µM	11.8 µM	44.8 µM
O=C(c1cccs1)c1c(C(F)(F)F)n([O-])c2cc(Cl)c(Cl)cc2[n+]1=O	0.975 µM	2.52 µM	< 0.0387 µM	0.0617 µM	1.39 µM	4.07 µM	1.55 µM	2.95 µM	0.362 µM	3.53 µM	0.872 µM	2.68 µM	1.41 µM	2.85 µM		
CSc1nc2nc(-c3ccccc3)c(C)c-2c2n1C(C)C(=O)N2 (stereo not drawn)	50.3 µM	> 100 µM			32.4 µM	> 100 µM	38.1 µM	> 100 µM	36.4 µM	> 100 µM	51.9 µM	> 100 µM	40.8 µM	> 100 µM	16.4 µM	> 100 µM
Nc1nc(=S)c2ncn(C3OC(COP(=O)(O)O)C(O)C3O)c2[nH]1 (stereo not drawn)	2.38 µM	> 100 µM	0.406 µM	> 100 µM	0.562 µM	10.9 µM	1.89 µM	> 100 µM	2.37 µM	> 100 µM	0.577 µM	> 100 µM			0.451 µM	> 100 µM

SMILES	GI50 (BT-549 breast)	TGI (BT-549 breast)	GI50 (CCRF-CEM leukemia)	TGI (CCRF-CEM leukemia)	GI50 (NCI-H460 lung)	TGI (NCI-H460 lung)	GI50 (TK-10 renal)	TGI (TK-10 renal)	GI50 (HL-60(TB) leukemia)	TGI (HL-60(TB) leukemia)	GI50 (DU-145 prostate)	TGI (DU-145 prostate)	GI50 (HOP-92 NSCLC)	TGI (HOP-92 NSCLC)	GI50 (RPMI-8226 leukemia)	TGI (RPMI-8226 leukemia)
CC(=O)Oc1ccc(C2=Cc3ccc(OC(C)=O)cc3OC2C)cc1 (stereo not drawn)	4.66 µM	69.9 µM	0.525 µM	22.5 µM	3.35 µM	13.2 µM	20 µM	> 100 µM	0.645 µM	4.86 µM	3.27 µM	13.9 µM	6.74 µM	> 100 µM	0.59 µM	16 µM
COC12C(COC(=O)NCCO)C3=C(C(=O)C(C)=C(N)C3=O)N1CC1NC12 (stereo not drawn)		171 µM		> 264 µM		30.7 µM and 49.4 µM	66.8 µM	> 264 µM		> 264 µM		236 µM	76.3 µM	222 µM		> 264 µM
COc1cc2nnc3c4cccnc4[nH]c3c2cc1OC	6.42 µM and 3.75 µM	43.9 µM and 35.1 µM			2.84 µM and 2.46 µM	12.9 µM and 8.63 µM	10.3 µM and 2.38 µM	50 µM and 7.83 µM	0.111 µM	50 µM	4.32 µM and 2.1 µM	18.3 µM and 5.11 µM	0.771 µM and 0.212 µM		1.45 µM and 0.187 µM	
COc1ccc(-c2[nH]c3ccc(OC)cc3c2C=C(C#N)C#N)cc1	> 100 µM	> 100 µM	> 100 µM	> 100 µM	0.463 µM	> 100 µM	> 100 µM	> 100 µM			0.752 µM	> 100 µM	> 47.9 µM	> 100 µM	2.5 µM	> 100 µM
Fc1ccc(NC(c2ccc(F)cc2)C2CCN(CCCCc3ccccc3)CC2)cc1 (stereo not drawn)	1.55 µM	2.97 µM	3.62 µM	9.12 µM	1.71 µM	3.09 µM	2.07 µM	5.34 µM	1.24 µM	3.54 µM	1.77 µM	3.86 µM	1.31 µM	3.41 µM	2.17 µM	4.78 µM
O=C(O)CN(CCN(CC(=O)O)CC(=O)O)CC(=O)O.[Mn+2]	> 100 µM	> 100 µM	> 100 µM	> 100 µM	> 100 µM	> 100 µM	> 100 µM	> 100 µM	> 100 µM	> 100 µM	> 100 µM	> 100 µM			> 100 µM	> 100 µM
S=C1SCN(Cc2ccccc2)CN1Cc1ccco1	2.91 µM	12.3 µM	2.75 µM	18.5 µM	5.25 µM	22.3 µM	5.79 µM	18.8 µM	5.91 µM	> 100 µM	2.85 µM	9.61 µM	2.4 µM	10.9 µM		
C(=Nc1nc(SCc2ccccc2)nc2[nH]ncc12)c1cccs1	41 µM	> 100 µM	37.2 µM	> 100 µM	33.2 µM	> 100 µM	44.3 µM	> 100 µM			43 µM	> 100 µM	10.7 µM	50 µM	27.6 µM	> 100 µM
COc1ccc(Nc2cnc3cc(N)cc(N)c3n2)cc1			14.8 µM	89.7 µM	21.9 µM	53.5 µM	23.7 µM	76.2 µM	5.49 µM	73.7 µM	30.4 µM	> 100 µM			4.53 µM	25.7 µM
[O]=[V]([OH])([OH])[OH]	> 100 µM	> 100 µM	> 100 µM	> 100 µM	> 100 µM	> 100 µM	> 100 µM	> 100 µM			> 100 µM	> 100 µM				
CN1CCN(c2c(F)cc(NC3=C(Cl)C(=O)c4ncccc4C3=O)cc2F)CC1	12.9 µM	25.9 µM	2.24 µM	22 µM	18.1 µM	36 µM	1.93 µM	3.67 µM	1.33 µM	4.99 µM	12.7 µM	26.2 µM	1.55 µM	3.22 µM		
Cc1ccc(S(=O)(=O)NCCCCC(N)C(=O)O)cc1 (stereo not drawn)		> 100 µM		> 100 µM		> 100 µM						> 100 µM		> 100 µM		> 100 µM
OCC1CC[N-]CC1.OCC1CC[N-]CC1.[Cl][Pt+2]([Cl])([Cl])[Cl]	27 µM				27.9 µM	95.7 µM	37.3 µM				20.8 µM	61.5 µM	34.2 µM	87 µM	15.2 µM	53.1 µM
C=C(CN1CCc2[nH]c3ccc(F)cc3c2C1)c1ccc(C(=O)Nc2ccccc2N)cc1	1.5 µM	5.67 µM	2.52 µM	11.9 µM	3.98 µM	17.2 µM	2.58 µM	16.2 µM			1.66 µM	3.94 µM	10.7 µM	36.7 µM	2.48 µM	> 100 µM
CC(=O)Oc1c(C(=O)[O-])cc(C(C)C)cc1C(C)C.CC(=O)Oc1c(C(=O)[O-])cc(C(C)C)cc1C(C)C.CC(=O)Oc1c(C(=O)[O-])cc(C(C)C)cc1C(C)C.CC(=O)Oc1c(C(=O)[O-])cc(C(C)C)cc1C(C)C.[Cu+2].[Cu+2]	16.7 µM	38.5 µM	20.5 µM	53.7 µM	34.8 µM	> 100 µM	33.7 µM	> 100 µM	22.7 µM	81.9 µM	34.2 µM	> 100 µM	45.5 µM	> 100 µM		
CCCCCC/C=C\CCCCCCCCC(=O)c1cccc(OC)c1OC		> 100 µM		> 100 µM				> 100 µM		69.9 µM		> 100 µM				> 100 µM
